Tests used:
FGFR3 (V555M) = target: T1, FGFR3 (V555M) (Homo sapiens, UniProt P22607, V555M); experiment: Kinase binding assay (kinase-tagged T7 phage, affinity beads, qPCR readout), FGFR3 (V555M); settings: FGFR binding data
T1 construct: made in house; host or cells: E. coli derived from BL21, infected with T7 phage
Outline: (§1)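 Phage lysate kinase + liganded magnetic beads + compound, 11-pt 3-fold series, 0.9% DMSO; 1 h RT shaking. Wash, elute 30 min with 0.5 μM non-biotinylated ligand; qPCR readout. Hill fit, slope −1 → Kd.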

FGFR2 = target: T2, FGFR2 (Homo sapiens, UniProt P21802); experiment: Kinase binding assay (kinase-tagged T7 phage, affinity beads, qPCR readout), FGFR2; settings: FGFR binding data
T2 construct: made in house; host or cells: E. coli derived from BL21, infected with T7 phage
T2 sequence (P21802 22-821): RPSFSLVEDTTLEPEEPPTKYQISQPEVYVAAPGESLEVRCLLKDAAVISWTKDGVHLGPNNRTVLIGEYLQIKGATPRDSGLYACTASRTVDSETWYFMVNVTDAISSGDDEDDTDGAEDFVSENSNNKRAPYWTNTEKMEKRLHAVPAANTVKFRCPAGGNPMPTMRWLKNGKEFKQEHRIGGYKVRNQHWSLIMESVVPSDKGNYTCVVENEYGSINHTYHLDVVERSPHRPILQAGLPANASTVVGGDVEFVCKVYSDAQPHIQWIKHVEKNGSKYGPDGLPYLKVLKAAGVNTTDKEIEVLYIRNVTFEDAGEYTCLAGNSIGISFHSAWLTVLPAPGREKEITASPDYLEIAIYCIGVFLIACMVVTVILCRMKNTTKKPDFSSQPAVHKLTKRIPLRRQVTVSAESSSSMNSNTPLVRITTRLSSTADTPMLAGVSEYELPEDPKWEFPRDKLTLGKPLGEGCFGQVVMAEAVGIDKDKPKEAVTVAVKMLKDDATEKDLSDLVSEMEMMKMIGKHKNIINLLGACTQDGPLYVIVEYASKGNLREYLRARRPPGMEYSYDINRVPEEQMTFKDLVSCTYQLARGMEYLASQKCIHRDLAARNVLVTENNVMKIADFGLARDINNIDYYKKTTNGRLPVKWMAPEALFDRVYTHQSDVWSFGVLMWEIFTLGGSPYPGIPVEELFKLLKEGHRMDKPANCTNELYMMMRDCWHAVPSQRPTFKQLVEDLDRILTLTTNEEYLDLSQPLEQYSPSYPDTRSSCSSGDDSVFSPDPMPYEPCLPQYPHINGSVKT
Outline: as §1

FGFR1 = target: T3, FGFR1 (Homo sapiens, UniProt P11362); experiment: Kinase binding assay (kinase-tagged T7 phage, affinity beads, qPCR readout), FGFR1; settings: FGFR binding data
T3 construct: made in house; host or cells: E. coli derived from BL21, infected with T7 phage
T3 sequence (P11362 22-822): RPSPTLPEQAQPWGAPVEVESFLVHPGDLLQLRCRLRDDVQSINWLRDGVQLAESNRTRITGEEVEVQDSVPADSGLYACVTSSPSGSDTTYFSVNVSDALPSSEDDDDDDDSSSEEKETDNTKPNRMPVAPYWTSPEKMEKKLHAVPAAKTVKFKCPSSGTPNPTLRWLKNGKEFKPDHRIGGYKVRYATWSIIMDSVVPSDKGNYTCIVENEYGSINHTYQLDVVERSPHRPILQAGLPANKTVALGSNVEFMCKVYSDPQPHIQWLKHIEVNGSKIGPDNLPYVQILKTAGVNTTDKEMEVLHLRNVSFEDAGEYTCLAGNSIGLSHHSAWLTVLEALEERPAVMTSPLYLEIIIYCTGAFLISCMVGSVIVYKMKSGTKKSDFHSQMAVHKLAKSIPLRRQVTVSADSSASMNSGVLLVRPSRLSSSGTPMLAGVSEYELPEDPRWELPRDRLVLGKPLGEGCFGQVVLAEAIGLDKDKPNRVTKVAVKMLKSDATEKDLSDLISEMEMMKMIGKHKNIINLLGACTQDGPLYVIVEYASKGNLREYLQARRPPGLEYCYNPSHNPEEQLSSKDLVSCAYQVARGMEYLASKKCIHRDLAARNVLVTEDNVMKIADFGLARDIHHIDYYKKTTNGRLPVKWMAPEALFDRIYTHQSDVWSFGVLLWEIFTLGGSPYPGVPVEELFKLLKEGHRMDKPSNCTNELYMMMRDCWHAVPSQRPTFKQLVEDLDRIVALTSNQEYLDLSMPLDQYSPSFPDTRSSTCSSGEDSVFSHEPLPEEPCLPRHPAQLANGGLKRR
Outline: as §1

[1] = test system: SNU-16 (Gastric Carcinoma), FGFR2 amplification; experiment: Cancer cell viability assay (Cell Titer-Glo), SNU-16; format: cell-based; settings: Homo sapiens, SNU-16 cells, 72 hours, read-out: SNU16 FGFR2 (IC50 nM)
From the text: RT112/84, UM-UC-14, SNU-16 and KG-1 Cancer Cell Line Cell Viability Assays
To detect the change of intracellular ATP by Cell Titer-Glo@ and to evaluate the inhibitory effect of the compounds on cancer cell lines by determining the in vitro IC50 value of the compounds.
Cell Titer-Glo@ 2.0 Luminescent cell viability assay reagent was purchased from Promega (Madison, WI). RT112/84, SNU-16, and KG-1 cell lines were purchased from American Type Culture Collection (Manassas, VA). UM-UC-14 cell line was purchased from Sigma (St. Louis, MO). RT112/84, UM-UC-14, SNU-16, and KG-1 cells were cultured in RPMI1640 media supplemented with 10% fetal bovine serum. Cultures were maintained at 37° C. in a humidified atmosphere of 5% CO2 and 95% air.
Cell Viability Assay Procedure: Cells were plated in 96-well clear bottom/white plates (Corning #3903) at 10,000 cells/well in 100 μl of media, incubated overnight. The next day, test compound DMSO stock solutions were made at 10 mM and 2 μM final concentration. Compounds were then added to cells in a 9-dose, […] dilution series starting at 30 μM with an HP 300e Digital Dispenser (each dose was applied in triplicate). DMSO was backfilled to each well up to 301 nL total volume of test compound+DMSO, and a total of 301 nL DMSO was added to a control/no test compound well in triplicate. The cells in cell culture plates were incubated with the compounds at 37° C. and 5% CO2 for 72 hours. Then 50 μl of Cell Titer Glo 2.0 reagent was added to each well of the cell culture plates. The contents were covered from light and mixed on an orbital shaker at room temperature for 10 min. Luminescence was recorded by a Synergy H1 Microplate Reader (Biotek, Winooski, VT). Cells were assessed as a percentage of DMSO only treated control cells. Curves were plotted and IC50 values were calculated using the GraphPad Prism 8 program based on a sigmoidal dose-response equation (4 parameter).

FGFR3 = target: T4, FGFR3 (Homo sapiens, UniProt P22607); experiment: Kinase binding assay (kinase-tagged T7 phage, affinity beads, qPCR readout), FGFR3; settings: FGFR binding data
T4 construct: made in house; host or cells: E. coli derived from BL21, infected with T7 phage
T4 sequence (P22607 23-806): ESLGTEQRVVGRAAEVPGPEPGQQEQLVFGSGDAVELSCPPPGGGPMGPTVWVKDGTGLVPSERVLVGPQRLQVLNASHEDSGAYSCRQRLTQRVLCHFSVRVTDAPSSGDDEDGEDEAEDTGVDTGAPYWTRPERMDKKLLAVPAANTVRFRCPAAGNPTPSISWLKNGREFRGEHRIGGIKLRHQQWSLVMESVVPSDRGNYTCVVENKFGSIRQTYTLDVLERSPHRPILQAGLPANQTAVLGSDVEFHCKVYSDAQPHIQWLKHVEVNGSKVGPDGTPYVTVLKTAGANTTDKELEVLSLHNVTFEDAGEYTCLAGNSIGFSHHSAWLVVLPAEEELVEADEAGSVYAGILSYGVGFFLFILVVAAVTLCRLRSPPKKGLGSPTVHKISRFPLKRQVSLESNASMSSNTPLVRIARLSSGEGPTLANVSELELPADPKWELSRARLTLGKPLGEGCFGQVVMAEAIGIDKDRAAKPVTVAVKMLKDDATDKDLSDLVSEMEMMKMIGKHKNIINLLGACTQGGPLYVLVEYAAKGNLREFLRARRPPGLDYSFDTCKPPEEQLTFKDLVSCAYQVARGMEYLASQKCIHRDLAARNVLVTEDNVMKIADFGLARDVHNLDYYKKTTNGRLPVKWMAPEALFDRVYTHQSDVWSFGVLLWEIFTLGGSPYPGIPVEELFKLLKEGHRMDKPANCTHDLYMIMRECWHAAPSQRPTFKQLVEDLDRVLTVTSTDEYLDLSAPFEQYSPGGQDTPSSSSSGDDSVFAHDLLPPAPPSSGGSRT
Outline: as §1

T1 sequence (P22607 23-806 V555M): as the sequence (P22607 23-806) above, with V533M counted along it

Kd (FGFR3 (V555M)) [nM] | Kd (FGFR2) [nM] | Kd (FGFR1) [nM] | IC50 [1] [nM] | Kd (FGFR3) [nM] | Structure (SMILES)
0.1 to 100 | 0.1 to 100 | 0.1 to 100 | 0.1 to 100 | 0.1 to 100 | C=CC(=O)Nc1ccc2c(c1)c(C)cn2-c1nc(Nc2ccn(CCO)n2)ncc1C [Example 100, N-[1-[2-[[1-(2-hydroxyethyl)pyrazol-3-yl]amino]-5-methyl-pyrimidin-4-yl]-3-methyl-indol-5-yl]prop-2-enamide]
0.1 to 100 | 0.1 to 100 | 0.1 to 100 | 0.1 to 100 | 0.1 to 100 | C=CC(=O)Nc1ccc2c(c1)c(C)cn2-c1nc(Nc2cc(C)n(C)n2)ncc1C [Example 102, N-[1-[2-[(1,5-dimethylpyrazol-3-yl)amino]-5-methyl-pyrimidin-4-yl]-3-methyl-indol-5-yl]prop-2-enamide]
0.1 to 100 | 0.1 to 100 | 0.1 to 100 | 0.1 to 100 | 0.1 to 100 | C=CC(=O)Nc1ccc2c(c1)c(C)cn2-c1nc(Nc2ccn(C3COC3)n2)ncc1C [Example 120, N-[3-methyl-1-[5-methyl-2-[[1-(oxetan-3-yl)pyrazol-3-yl]amino]pyrimidin-4-yl]indol-5-yl]prop-2-enamide]
0.1 to 100 | 0.1 to 100 | 0.1 to 100 | 0.1 to 100 | 0.1 to 100 | C=CC(=O)Nc1ccc2c(c1)c(C)cn2-c1nc(Nc2cc(C)[nH]n2)ncc1C [Example 123, N-[3-methyl-1-[5-methyl-2-[(5-methyl-1H-pyrazol-3-yl)amino]pyrimidin-4-yl]indol-5-yl]prop-2-enamide]
0.1 to 100 | 0.1 to 100 | 0.1 to 100 | 0.1 to 100 | 0.1 to 100 | Cc1cn(-c2nc(Nc3cnn(CCO)c3)ncc2F)c2ccc(NC(=O)/C=C/CN(C)C)cc12 [Example 144, (E)-4-(dimethylamino)-N-[1-[5-fluoro-2-[[1-(2-hydroxyethyl)pyrazol-4-yl]amino]pyrimidin-4-yl]-3-methyl-indol-5-yl]but-2-enamide]
0.1 to 100 | 0.1 to 100 | 0.1 to 100 | 0.1 to 100 | 0.1 to 100 | C=CC(=O)Nc1ccc2c(c1)c(C)cn2-c1nc(Nc2cnn(C)c2C)ncc1C [Example 147, N-[1-[2-[(1,5-dimethylpyrazol-4-yl)amino]-5-methyl-pyrimidin-4-yl]-3-methyl-indol-5-yl]prop-2-enamide]
0.1 to 100 | 0.1 to 100 | 0.1 to 100 | 0.1 to 100 | 0.1 to 100 | C=CC(=O)Nc1ccc2c(c1)c(C)cn2-c1nc(Nc2cnsc2)ncc1F [Example 148, N-[1-[5-fluoro-2-(isothiazol-4-ylamino)pyrimidin-4-yl]-3-methyl-indol-5-yl]prop-2-enamide]
0.1 to 100 | 0.1 to 100 | 100 to 250 | 0.1 to 100 | 0.1 to 100 | C=CC(=O)Nc1ccc2c(c1)c(C)cn2-c1nc(Nc2cn(C(F)F)nc2C)ncc1F [Example 149, N-[1-[2-[[1-(difluoromethyl)-3-methyl-pyrazol-4-yl]amino]-5-fluoro-pyrimidin-4-yl]-3-methyl-indol-5-yl]prop-2-enamide]
100 to 250 | 0.1 to 100 | 250 to 1000 | 0.1 to 100 | 0.1 to 100 | C=CC(=O)Nc1ccc2c(c1)c(C)cn2-c1nc(Nc2cnc(C)nc2C)ncc1F [Example 150, N-[1-[2-[(2,4-dimethylpyrimidin-5-yl)amino]-5-fluoro-pyrimidin-4-yl]-3-methyl-indol-5-yl]prop-2-enamide]
0.1 to 100 | 0.1 to 100 | 0.1 to 100 |  | 0.1 to 100 | C=CC(=O)Nc1ccc2c(c1)c(C)c(C)n2-c1nc(Nc2cnn(C)c2)ncc1F [Example 226, N-[1-[5-fluoro-2-[(1-methylpyrazol-4-yl)amino]pyrimidin-4-yl]-2,3-dimethyl-indol-5-yl]prop-2-enamide]
0.1 to 100 | 0.1 to 100 | 100 to 250 |  | 0.1 to 100 | C=CC(=O)Nc1ccc2c(c1)cc(C)n2-c1nc(Nc2cnn(C)c2)ncc1F [Example 227, N-[1-[5-fluoro-2-[(1-methylpyrazol-4-yl)amino]pyrimidin-4-yl]-2-methyl-indol-5-yl]prop-2-enamide]

Continued, compound first:

Structure (SMILES) | Kd (FGFR3 (V555M)) [nM] | Kd (FGFR2) [nM] | Kd (FGFR1) [nM] | IC50 [1] [nM] | Kd (FGFR3) [nM]
C=CC(=O)Nc1cnc2c(c1)c(C)cn2-c1nc(Nc2ccn(C)n2)ncc1C [Example 97, N-[3-methyl-1-[5-methyl-2-[(1-methylpyrazol-3-yl)amino]pyrimidin-4-yl]pyrrolo[2,3-b]pyridin-5-yl]prop-2-enamide] | 0.1 to 100 | 0.1 to 100 | 0.1 to 100 | 0.1 to 100 | 0.1 to 100
C=CC(=O)Nc1ccc2c(-c3ccnc(Nc4cc(C)n(C)n4)n3)cn(C)c2c1 [Example 103, N-[3-[2-[(1,5-dimethylpyrazol-3-yl)amino]pyrimidin-4-yl]-1-methyl-indol-6-yl]prop-2-enamide] | 100 to 250 | 100 to 250 | 250 to 1000 | 0.1 to 100 | 0.1 to 100
Cc1cnc(Nc2ccnn2C)nc1-n1cc(C)c2cc(NC(=O)/C=C/CN(C)C)ccc21 [Example 107, (E)-4-(dimethylamino)-N-[3-methyl-1-[5-methyl-2-[(2-methylpyrazol-3-yl)amino]pyrimidin-4-yl]indol-5-yl]but-2-enamide] | 0.1 to 100 | 100 to 250 | 250 to 1000 | 0.1 to 100 | 0.1 to 100
Cc1cnc(Nc2cnn(CCO)c2)nc1-n1cc(C)c2cc(NC(=O)/C=C/CN(C)C)ccc21 [Example 122, (E)-4-(dimethylamino)-N-[1-[2-[[1-(2-hydroxyethyl)pyrazol-4-yl]amino]-5-methyl-pyrimidin-4-yl]-3-methyl-indol-5-yl]but-2-enamide] | 0.1 to 100 | 0.1 to 100 | 0.1 to 100 | 0.1 to 100 | 0.1 to 100
C=CC(=O)Nc1cnc2c(c1)c(C)cn2-c1nc(Nc2cc(C)n(C(=O)OC(C)(C)C)n2)ncc1C [Example 124, tert-butyl 5-methyl-3-[[5-methyl-4-[3-methyl-5-(prop-2-enoylamino)pyrrolo[2,3-b]pyridin-1-yl]pyrimidin-2-yl]amino]pyrazole-1-carboxylate] | 0.1 to 100 | 100 to 250 | 100 to 250 | 0.1 to 100 | 0.1 to 100
C=CC(=O)Nc1cnc2c(c1)c(C)cn2-c1nc(Nc2cnn(CCO)c2)ncc1C [Example 125, N-[1-[2-[[1-(2-hydroxyethyl)pyrazol-4-yl]amino]-5-methyl-pyrimidin-4-yl]-3-methyl-pyrrolo[2,3-b]pyridin-5-yl]prop-2-enamide] | 0.1 to 100 | 0.1 to 100 | 0.1 to 100 | 0.1 to 100 | 0.1 to 100
C=CC(=O)Nc1ccc2c(-c3nc(Nc4cnn(CCO)c4)ncc3C)cn(C)c2c1 [Example 126, N-[3-[2-[[1-(2-hydroxyethyl)pyrazol-4-yl]amino]-5-methyl-pyrimidin-4-yl]-1-methyl-indol-6-yl]prop-2-enamide] | 0.1 to 100 | 0.1 to 100 | 0.1 to 100 | 0.1 to 100 | 0.1 to 100
C=CC(=O)Nc1ccc2c(-c3nc(Nc4cnn(CCO)c4)ncc3Cl)cn(C)c2c1 [Example 127, N-[3-[5-chloro-2-[[1-(2-hydroxyethyl)pyrazol-4-yl]amino]pyrimidin-4-yl]-1-methyl-indol-6-yl]prop-2-enamide] | 0.1 to 100 | 0.1 to 100 | 0.1 to 100 | 0.1 to 100 | 0.1 to 100
C=CC(=O)Nc1ccc2c(-c3nc(Nc4cnn(CCO)c4)ncc3F)cn(C)c2c1 [Example 128, N-[3-[5-fluoro-2-[[1-(2-hydroxyethyl)pyrazol-4-yl]amino]pyrimidin-4-yl]-1-methyl-indol-6-yl]prop-2-enamide] | 0.1 to 100 | 0.1 to 100 | 0.1 to 100 | 0.1 to 100 | 0.1 to 100
C=CC(=O)Nc1ccc2c(c1)c1ccccc1n2-c1nc(Nc2cnn(C)c2)ncc1F [Example 228, N-[9-[5-fluoro-2-[(1-methylpyrazol-4-yl)amino]pyrimidin-4-yl]carbazol-3-yl]prop-2-enamide] | > 1000 | 0.1 to 100 | 0.1 to 100 |  | 0.1 to 100
